Measurements from patent US20230000813A1, “COMPOUND FOR THE TREATMENT OF BOVINE OR SWINE RESPIRATORY DISEASE” (Intervet Inc., priority 2016, published 2023).
Converted amounts (≈) assume the structure as drawn.

What follows are molecules tested on Pasteurella multocida PM 12080 (IV102277-0093, BRD field isolate) (assay: MIC, broth-microdilution (CLSI VET01-A4)). Conditions: Pasteurella multocida PM 12080.
Assay type: cell-based
Description: (§1) The Minimum inhibitory concentrations (MIC) of compounds according to the invention for a number of veterinary bacterial pathogens were determined by the broth-microdilution method according to CLSI document VET01-A4.
(§2) Microdilution trays containing a doubling dilution series of the test compound were used for the tests. The MIC results were interpreted according to the CLSI documents VET01-S3. The lowest concentration of compound at which no visible growth (i.e. no turbidity) detected by the unaided eye was recorded as the MIC.
(§3) The Minimum inhibitory concentrations (MIC) of compounds according to the invention were determined by the broth-microdilution method according to CLSI document VET01-A4.
(§4) Microdilution trays containing a doubling dilution series of the test compound were used for the tests.
(§5) The MIC results were interpreted according to the CLSI documents VET01-S3. The lowest concentration of compound at which no visible growth (i.e. no turbidity) detected by the unaided eye was recorded as the MIC.

SMILES	MIC PM 12080
C[C@@H](O)[C@H](NC(=O)c1ccc(C#Cc2ccc(CNCc3ccc(F)cc3)s2)cc1)C(=O)NO [Compound 485]	<=0.1 μM
CC(O)C(NC(=O)c1ccc(C#CC#CC=CCNC2CC2)cc1)C(=O)NO (stereo not shown) [Compound 444]	<=0.1 μM
Cc1cnc(CNCc2ccc(C#Cc3ccc(C(=O)N[C@H](C(=O)NO)[C@@H](C)O)cc3)s2)o1 [Compound 484]	<=0.1 μM
Cc1cnc(CNCc2ccc(C#Cc3ccc(C(=O)N[C@H](C(=O)NO)[C@@H](C)O)cc3)cc2)o1 [Compound 474]	<=0.1 μM
CSCCNCc1ccc(C#Cc2ccc(C(=O)N[C@H](C(=O)NO)[C@@H](C)O)cc2)s1 [Compound 482]	<=0.1 μM

The molecules below were run on Pasteurella multocida PM 6391 (ATCC 43137, reference strain) (assay: MIC, broth-microdilution (CLSI VET01-A4)). Conditions: Pasteurella multocida PM 6391.
Assay type: cell-based
Description: as §1, §2, §3, §4, §5

SMILES	MIC PM 6391
C[C@@H](O)[C@H](NC(=O)c1ccc(C#Cc2ccc(CNCc3ccc(F)cc3)s2)cc1)C(=O)NO [Compound 485]	<=0.1 μM
CC(O)C(NC(=O)c1ccc(C#CC#CC=CCNC2CC2)cc1)C(=O)NO (stereo not shown) [Compound 444]	<=0.1 μM
Cc1cnc(CNCc2ccc(C#Cc3ccc(C(=O)N[C@H](C(=O)NO)[C@@H](C)O)cc3)s2)o1 [Compound 484]	<=0.1 μM
Cc1cnc(CNCc2ccc(C#Cc3ccc(C(=O)N[C@H](C(=O)NO)[C@@H](C)O)cc3)cc2)o1 [Compound 474]	<=0.1 μM
CSCCNCc1ccc(C#Cc2ccc(C(=O)N[C@H](C(=O)NO)[C@@H](C)O)cc2)s1 [Compound 482]	<=0.1 μM

What follows are molecules tested on Mannheimia haemolytica MH 6374 (ATCC 33396, reference strain) (assay: MIC, broth-microdilution (CLSI VET01-A4)). Conditions: Mannheimia haemolytica MH 6374.
Assay type: cell-based
Description: as §1, §2, §3, §4, §5

SMILES	MIC MH 6374
C[C@@H](O)[C@H](NC(=O)c1ccc(C#Cc2ccc(CNCc3ccc(F)cc3)s2)cc1)C(=O)NO [Compound 485]	<=0.1 μM

Same assay, conditions: Mannheimia haemolytica MH 6374; read-out: MIC MH 6374

SMILES	MIC [µM]
CC(O)C(NC(=O)c1ccc(C#CC#CC=CCNC2CC2)cc1)C(=O)NO (stereo not shown) [Compound 444]	0.8 (≈ 0.305 µg/mL)
Cc1cnc(CNCc2ccc(C#Cc3ccc(C(=O)N[C@H](C(=O)NO)[C@@H](C)O)cc3)s2)o1 [Compound 484]	0.4 (≈ 0.187 µg/mL)
Cc1cnc(CNCc2ccc(C#Cc3ccc(C(=O)N[C@H](C(=O)NO)[C@@H](C)O)cc3)cc2)o1 [Compound 474]	0.4 (≈ 0.185 µg/mL)
CSCCNCc1ccc(C#Cc2ccc(C(=O)N[C@H](C(=O)NO)[C@@H](C)O)cc2)s1 [Compound 482]	0.4 (≈ 0.179 µg/mL)

These molecules were tested on Mannheimia haemolytica MH 6357 (M7/2, reference strain, cattle infection strain) (assay: MIC, broth-microdilution (CLSI VET01-A4)). Conditions: Mannheimia haemolytica MH 6357.
Assay type: cell-based
Description: as §1, §2, §3, §4, §5

SMILES	MIC MH 6357
C[C@@H](O)[C@H](NC(=O)c1ccc(C#Cc2ccc(CNCc3ccc(F)cc3)s2)cc1)C(=O)NO [Compound 485]	<=0.1 μM

Same assay, conditions: Mannheimia haemolytica MH 6357; read-out: MIC MH 6357

SMILES	MIC [µM]
CC(O)C(NC(=O)c1ccc(C#CC#CC=CCNC2CC2)cc1)C(=O)NO (stereo not shown) [Compound 444]	0.4 (≈ 0.153 µg/mL)
Cc1cnc(CNCc2ccc(C#Cc3ccc(C(=O)N[C@H](C(=O)NO)[C@@H](C)O)cc3)s2)o1 [Compound 484]	0.2 (≈ 0.0937 µg/mL)
Cc1cnc(CNCc2ccc(C#Cc3ccc(C(=O)N[C@H](C(=O)NO)[C@@H](C)O)cc3)cc2)o1 [Compound 474]	0.2 (≈ 0.0925 µg/mL)
CSCCNCc1ccc(C#Cc2ccc(C(=O)N[C@H](C(=O)NO)[C@@H](C)O)cc2)s1 [Compound 482]	0.2 (≈ 0.0895 µg/mL)

Each molecule was assayed on Pasteurella multocida PM 6267 (P 2225 (L386), reference strain, mouse infection strain) (assay: MIC, broth-microdilution (CLSI VET01-A4)). Conditions: Pasteurella multocida PM 6267.
Assay type: cell-based
Description: as §1, §2, §3, §4, §5

SMILES	MIC PM 6267
C[C@@H](O)[C@H](NC(=O)c1ccc(C#Cc2ccc(CNCc3ccc(F)cc3)s2)cc1)C(=O)NO [Compound 485]	<=0.1 μM
CC(O)C(NC(=O)c1ccc(C#CC#CC=CCNC2CC2)cc1)C(=O)NO (stereo not shown) [Compound 444]	<=0.1 μM
Cc1cnc(CNCc2ccc(C#Cc3ccc(C(=O)N[C@H](C(=O)NO)[C@@H](C)O)cc3)s2)o1 [Compound 484]	<=0.1 μM
Cc1cnc(CNCc2ccc(C#Cc3ccc(C(=O)N[C@H](C(=O)NO)[C@@H](C)O)cc3)cc2)o1 [Compound 474]	<=0.1 μM
CSCCNCc1ccc(C#Cc2ccc(C(=O)N[C@H](C(=O)NO)[C@@H](C)O)cc2)s1 [Compound 482]	<=0.1 μM

What follows are molecules tested on Mannheimia haemolytica MH 10720 (154, BRD field isolate) (assay: MIC, broth-microdilution (CLSI VET01-A4)). Conditions: Mannheimia haemolytica MH 10720.
Assay type: cell-based
Description: as §1, §2, §3, §4, §5

SMILES	MIC MH 10720
C[C@@H](O)[C@H](NC(=O)c1ccc(C#Cc2ccc(CNCc3ccc(F)cc3)s2)cc1)C(=O)NO [Compound 485]	<=0.1 μM
CC(O)C(NC(=O)c1ccc(C#CC#CC=CCNC2CC2)cc1)C(=O)NO (stereo not shown) [Compound 444]	<=0.1 μM
Cc1cnc(CNCc2ccc(C#Cc3ccc(C(=O)N[C@H](C(=O)NO)[C@@H](C)O)cc3)s2)o1 [Compound 484]	<=0.1 μM
Cc1cnc(CNCc2ccc(C#Cc3ccc(C(=O)N[C@H](C(=O)NO)[C@@H](C)O)cc3)cc2)o1 [Compound 474]	<=0.1 μM
CSCCNCc1ccc(C#Cc2ccc(C(=O)N[C@H](C(=O)NO)[C@@H](C)O)cc2)s1 [Compound 482]	<=0.1 μM

What follows are molecules tested on Mannheimia haemolytica MH 12587 (1071, BRD field isolate, macrolide-resistance: erm+, E+) (assay: MIC, broth-microdilution (CLSI VET01-A4)). Conditions: Mannheimia haemolytica MH 12587, macrolide-resistant.
Assay type: cell-based
Description: as §1, §2, §3, §4, §5

SMILES	MIC MH 12587 [µM]
C[C@@H](O)[C@H](NC(=O)c1ccc(C#Cc2ccc(CNCc3ccc(F)cc3)s2)cc1)C(=O)NO [Compound 485]	0.4 (≈ 0.193 µg/mL)
CC(O)C(NC(=O)c1ccc(C#CC#CC=CCNC2CC2)cc1)C(=O)NO (stereo not shown) [Compound 444]	1.6 (≈ 0.61 µg/mL)
Cc1cnc(CNCc2ccc(C#Cc3ccc(C(=O)N[C@H](C(=O)NO)[C@@H](C)O)cc3)s2)o1 [Compound 484]	0.8 (≈ 0.375 µg/mL)
Cc1cnc(CNCc2ccc(C#Cc3ccc(C(=O)N[C@H](C(=O)NO)[C@@H](C)O)cc3)cc2)o1 [Compound 474]	0.8 (≈ 0.37 µg/mL)
CSCCNCc1ccc(C#Cc2ccc(C(=O)N[C@H](C(=O)NO)[C@@H](C)O)cc2)s1 [Compound 482]	0.8 (≈ 0.358 µg/mL)

These molecules were tested on Mannheimia haemolytica MH 13093 (XB0472-6014.1, BRD field isolate) (assay: MIC, broth-microdilution (CLSI VET01-A4)). Conditions: not given.
Assay type: cell-based
Description: as §1, §2

SMILES	MIC [µM]
C[C@@H](O)[C@H](NC(=O)c1ccc(C#Cc2ccc(CNCc3ccc(F)cc3)s2)cc1)C(=O)NO [Compound 485]	0.2 (≈ 0.0963 µg/mL)
CC(O)C(NC(=O)c1ccc(C#CC#CC=CCNC2CC2)cc1)C(=O)NO (stereo not shown) [Compound 444]	1.6 (≈ 0.61 µg/mL)
Cc1cnc(CNCc2ccc(C#Cc3ccc(C(=O)N[C@H](C(=O)NO)[C@@H](C)O)cc3)s2)o1 [Compound 484]	0.8 (≈ 0.375 µg/mL)
Cc1cnc(CNCc2ccc(C#Cc3ccc(C(=O)N[C@H](C(=O)NO)[C@@H](C)O)cc3)cc2)o1 [Compound 474]	0.8 (≈ 0.37 µg/mL)
CSCCNCc1ccc(C#Cc2ccc(C(=O)N[C@H](C(=O)NO)[C@@H](C)O)cc2)s1 [Compound 482]	0.8 (≈ 0.358 µg/mL)
